Results reported in patent publication US8017780B1, “Therapeutic compounds and uses thereof” (Myrexis, Inc., priority 2008, dated 2011).

Biological target: T1, purified human Hsp90
T1 construct: purified human Hsp90 (Stressgen, SPP-770)
Experiment: Hsp90 binding assay: displacement of BODIPY-labeled geldanamycin by fluorescence polarization
Settings: BODIPY-GM 10 nM, purified human Hsp90 30 nM, overnight at room temperature; read-out: GM Displacement From Purified Hsp90 measured by FP
Description: The binding of exemplary compounds to purified Hsp90 can be assayed by measuring the displacement of BODIPY-labeled geldanamycin (BODIPY-GM) from purified human Hsp90, using a fluorescence polarization assay adapted from Kim et al. (Journal of Biomolecular Screening […]. Compound dilutions (in 100% DMSO) are added to black-bottom 96-well plates (Greiner; 2% DMSO final), and equal volumes of BODIPY-GM (10 nM final) and purified human Hsp90 (Stressgen, SPP-770; 30 nM final) in assay buffer (20 mM HEPES-KOH pH 7.3, 50 mM KCl, 5 mM MgCl2, 20 mM Na2MoO4, 0.01% NP-40, 0.1 mg/mL bovine gamma globulin [Invitrogen, P2045], 2 mM DTT) are added sequentially to yield a final volume of 50 microliters. Plates are incubated overnight at room temperature. Parallel and perpendicular fluorescence measurements are read (LJL BioSystems Analyst AD plate reader) at excitation/emission wavelengths of 485/530 nm. Background fluorescence (buffer only) is subtracted, and fluorescence polarization (FP) values, expressed in mP units, are calculated from parallel and perpendicular fluorescence readings as follows: FP=(parallel−perpendicular)/(parallel+perpendicular)*1000.
Percent inhibition is calculated by normalizing the FP values to those obtained in parallel reactions containing DMSO and subtracting these normalized values from 100%. Intrinsic compound fluorescence is independently monitored, and FP data points confounded by compound fluorescence are excluded from the analysis.

An IC50 of 5000 nM was found for `Nc1nccc2c1nc(Sc1cc3c(cc1Br)OCO3)n2CCC1CCN(C=O)CC1` [Example 1, 4-(2-[4-Amino-2-[(6-bromo-1,3-benzodioxol-5-yl)sulfanyl]-1H-imidazo[4,5-c]pyridin-1-yl]ethyl)piperidine-1-carbaldehyde] in this work.
An IC50 of 5000 nM was found for `CC(=O)N1CCC(CCn2c(Sc3cc4c(cc3Br)OCO4)nc3c(N)nccc32)CC1` [Example 2, 1-[4-(2-{4-Amino-2-[(6-bromo-1,3-benzodioxol-5-yl)sulfanyl]-1H-imidazo[4,5-c]pyridin-1-yl}ethyl)piperidin-1-yl]ethanone] in this work.
An IC50 of 2400 nM was found for `Nc1nccc2c1nc(Sc1cc3c(cc1Br)OCO3)n2CCc1ccccc1Cl` [Example 3, 2-[(6-Bromo-1,3-benzodioxol-5-yl)sulfanyl]-1-[2-(2-chlorophenyl)ethyl]-1H-imidazo[4,5-c]pyridin-4-amine] in this work.
An IC50 of 1000 nM was found for `C[C@H](O)C(=O)N1CCC(CCn2c(Sc3cc4c(cc3Br)OCO4)nc3c(N)nccc32)CC1` [Example 5, (2S)-1-[4-(2-{4-Amino-2-[(6-bromo-1,3-benzodioxol-5-yl)sulfanyl]-1H-imidazo[4,5-c]pyridin-1-yl}ethyl)piperidin-1-yl]-2-hydroxypropan-1-one] in this work.
An IC50 of 110 nM was found for `CN(C)c1cc2c(cc1Sc1nc3c(N)nccc3n1CCC1CCN(C=O)CC1)OCO2` [Example 8] in this work.
An IC50 of 79 nM was found for `CC(=O)O[C@@H](C)C(=O)N1CCC(CCn2c(Sc3cc4c(cc3N(C)C)OCO4)nc3c(N)nccc32)CC1` [Example 9, (2S)-1-[4-(2-{4-Amino-2-[(6-(dimethylamino)-1,3-benzodioxol-5-yl)sulfanyl]-1H-imidazo[4,5-c]pyridin-1-yl}ethyl)piperidin-1-yl]-1-oxopropan-2-yl acetate] in this work.
An IC50 of 110 nM was found for `C[C@H](O)C(=O)N1CCC(CCn2c(Sc3cc4c(cc3N(C)C)OCO4)nc3c(N)nccc32)CC1` [Example 10, (2S)-1-[4-(2-{4-Amino-2-[(6-(dimethylamino)-1,3-benzodioxol-5-yl)sulfanyl]-1H-imidazo[4,5-c]pyridin-1-yl}ethyl)piperidin-1-yl]-2-hydroxypropan-1-one] in this work.
